This is an account of results in patent US20120328602A1, “COMPOSITIONS AND METHODS FOR TREATING CONDITIONS ASSOCIATED WITH CERAMIDE BIOSYNTHESIS” (priority 2007, published 2012).

Series [1] relates to mice. The experiment in a line: hot plate, morphine-induced antinociceptive tolerance (Examples 3-5). Format: in vivo, Male CD-1 mice. The following applies: for % MPE: n=6. As for the experimental part:
Nociceptive thresholds were determined by measuring latencies (in seconds) of mice placed in a transparent glass cylinder on a hot plate (Ugo Basile, Italy) maintained at 52° C. Determination of antinociception was assessed between 7 and 10:00 A.M. All injections were given intra-peritoneally (i.p.) or subcutaneously (s.c.) in a volume of 0.1 and 0.3 ml, respectively, at approximately 7 A.M. and 4 P.M. Responses indicative of nociception included intermittent lifting and/or licking of the hindpaws or escape behavior. […] Results were expressed as percentage of maximum possible antinociceptive effect, which was calculated as follows: (response latency−baseline latency)/(cut-off latency−baseline latency)×100. A cut-off latency of twenty seconds was employed to prevent tissue damage. Ten mice per group were used and all experiments were conducted with the experimentors blinded to treatment conditions. […] The following experimental groups were used: […]
Vehicle (V) Group: In this group, mice were injected twice per day for four days with an i.p, injection of saline and a s.c. injection of saline.

The subject of series [2] is manganese superoxide dismutase (MnSOD). Kind of series: measurement of MnSOD enzymatic activity, spectrophotometric. The following applies: FB1 0.25-1 mg/kg/d with morphine, n=5. Type of series: in vivo, mice. The method, then: Dorsal halves of the spinal cord lumbar region enlargement (L4-L6) were homogenized with 10 mM phosphate buffered saline (pH 7.4) in a Polytron homogenizer and then sonicated on ice for one minute (twenty seconds, three times). The sonicated samples were subsequently centrifuged at 1,100×g for ten minutes. SOD activity was measured in the supernatants as described previously (Wang et al., 2004). A competitive inhibition assay was performed which used xanthine-xanthine oxidase-generated superoxide to reduce nitroblue tetrazolium (NBT) to blue tetrazolium salt. The reaction was performed in sodium carbonate buffer (50 mM, pH 10.1) containing EDTA (0.1 mM), nitroblue tetrazolium (25 μM), xanthine and xanthine-oxidase (0.1 mM and 2 nM respectively; Boehringer, Germany). The rate of NBT reduction was monitored spectrophotometrically (Perkin Elmer Lambda 5 Spectrophotometer, Milan, Italy) at 560 nm. The amount of protein required to inhibit the rate of NTB reduction by 50% was defined as one unit of enzyme activity. Cu/Zn-SOD activity was inhibited by performing the assay in the presence of 2 mM NaCN after pre-incubation for thirty minutes. Enzymatic activity was expressed in units per milligram of protein (Wang et al., 2004).

Series [3] concerns mice. The experiment in a line: Rotarod motor function test. Format: in vivo. The following applies: myriocin 0.4 mg/kg, FB1 1 mg/kg, D609 40 mg/kg; fifteen, thirty, and sixty minutes after administration; n=4; vs vehicle. The method, then: Mice were trained before experimentation for their ability to remain for one-hundred twenty seconds on a revolving Rotarod apparatus (accelerating units increase from 3.5 to 35 rpm in five minutes). Mice (n=4 per group) were injected with an i.p. injection of the highest dose of FB1 (1 mg/kg), myriocin (0.4 mg/kg), D609 (40 mg/kg) used to block antinociceptive tolerance or its vehicle. Mice (n=4 per group) were tested and examined for motor […] on the Rotarod at fifteen, thirty, and sixty minutes after drug administration as described in the method section. The latency time to fall off the Rotarod was determined. A cut-off time of one-hundred twenty seconds was used.
In general terms: In the rotarod test animals must keep their balance on a rotating rod.

The subject of series [4] is IL-6. The experiment in a line: IL-6 in dorsal horn of lumbar spinal cord by ELISA. Type of series: in vivo, mice. The note with it: morphine group vs vehicle group, n=10. (In general: In an ELISA, binding on a coated surface is turned into a signal by an enzyme label.)
Series [5] deals with IL-1β. Kind of series: IL-1β in dorsal horn of lumbar spinal cord by ELISA. The following applies: morphine group vs vehicle group, n=10. Format: in vivo, mice.
The subject of series [6] is neutral SMase. The experiment in a line: sphingomyelinase activity in spinal cord tissues, neutral isoform (Amplex Red kit). Format: in vivo, mice. The following applies: repeated morphine vs vehicle (not shown). As for the experimental part: Sphingomyelinase activity was measure using Amplex® Red Sphingomyelinase Assay Kit (Molecular Probes, Eugene, Oreg.) following manufacturer's instructions. First, spinal cord tissues were homogenized in buffers for each specific assay as previously described (Dobrowsky and Kolesnick, 2001). For the acid isoforms, Na acetate (100 mM and pH 5.0) lysis buffer was used. 2 mM EDTA was added to the lysis buffer for detection of the insoluble isoform. For neutral isoform detection, the tissues were homogenized in Hepes (20 mM, pH 7.4) lysis buffer. The kinetics for sphingomyelinase activity was measured in a fluorescence microplate reader for two hours followed by normalization per protein concentration of the sample. Hydrogen peroxide and sphingomyelinase were used as positive controls.

Series [7] deals with TNF-α. The experiment in a line: TNF-α in dorsal horn of lumbar spinal cord by ELISA. The note with it: morphine group vs vehicle group, n=10. Type of series: in vivo, mice.
Series [8] relates to serine palmitoyl transferase (SPT). The experiment in a line: serine palmitoyl transferase (SPT) activity. Type of series: in vivo, mice. The following applies: repeated morphine, tolerant mice vs vehicle. As for the experimental part:
SPT activity was determined by measuring the incorporation of [^3H] serine into 3-ketosphinganine following the method previously described (Williams et al., 1984). The results were normalized by the samples' protein concentration.

Entries after “also recorded” stand apart in the source; their conditions may differ.

On to `CCCC[C@@H](C)[C@@H](OC(=O)C[C@@H](CC(=O)O)C(=O)O)[C@H](C[C@@H](C)C[C@H](O)CCCC[C@@H](O)C[C@H](O)[C@H](C)N)OC(=O)C[C@@H](CC(=O)O)C(=O)O` [FB1, Fumonisin B1], for which, in series [1] (co-administered with morphine, FB1 0.1-1 mg/kg/d, myriocin 0.1-0.4 mg/kg/d, D609 10-40 mg/kg/d, n=10), the “development of tolerance, dose-dependence” value is reported as “attenuated in a dose-dependent manner”. Besides, the “hot plate latencies following s.c. saline” value in series [1] (day five, highest dose of drug, no morphine, n=10) is “six and seven”. Also, the “difference in responses to acute morphine (0.3-3 mg/kg), drug vs vehicle” value in series [1] (highest dose over five days: FB1 1 mg/kg/d, myriocin 0.4 mg/kg/d, D609 40 mg/kg/d, n=10) is reported as “statistically insignificant”. Moreover, the “antinociceptive effects when tested alone” value in series [1] (highest dose, alone) was “none of FB1, myriocin, or D609 had antinociceptive effects”. For the same compound, in series [1] (tolerant mice, single i.p. dose fifteen minutes before acute morphine 3 mg/kg: FB1 1 mg/kg, myriocin 0.4 mg/kg, D609 40 mg/kg), the “% MPE” value is 7±3%. For the same compound, the “loss of MnSOD enzymatic activity” value in series [2] is recorded as “restored in a dose-dependent manner”. Besides, the “Rotarod motor function deficits” value in series [3] is reported as “did not show signs of Rotarod deficits”.

In the case of `CN1CC[C@]23c4c5ccc(O)c4O[C@H]2[C@@H](O)C=C[C@H]3[C@H]1C5` [morphine], in series [4], the “IL-6 in dorsal horn tissues” value is given as “increased immunoreactivity; also recorded: significant increase”. Besides, the “IL-1β in dorsal horn tissues” value in series [5] is “increased immunoreactivity; also recorded: significant increase”. Also, the “percent maximal possible antinociceptive effect” value in series [1] (acute morphine 3 mg/kg in vehicle group (saline over four days), hot plate) is given as 90-95%. In addition, the “% MPE” value in series [1] (morphine group (tolerant), acute morphine 3 mg/kg on day five) is 10±2%; in series [1] (vehicle group (saline four days), acute morphine 3 mg/kg on day five) it was 96±3%. Also, the “development of antinociceptive tolerance” value in series [1] (repeated administration of morphine (20 mg/kg/d) over four days) is “led to the development of antinociceptive tolerance”. Moreover, the “activity of the neutral SMase” value in series [6] is “not changed compared to vehicle”. Moreover, in series [7], the “TNF-α in dorsal horn tissues” value is “increased immunoreactivity; also recorded: significant increase”. Further, in series [8], the “enzymatic activity of serine palmytoyl transferase (SPT)” value is “increased enzymatic activity”.
